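Grown in 96-well plates, cells were treated for 48 hours with each compound at five concentrations. Insufficient inhibition: endpoint recorded as highest concentration tested. Definition used: TGI = concentration required for complete inhibition of growth.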
Key:
Assay in all cases: NCI anticancer screen, dose series, 48 h
786-0 renal = tested on: 786-0 renal
A498 renal = tested on: A498 renal
A549 NSCLC = tested on: A549 NSCLC
ACHN renal = tested on: ACHN renal
CCRF-CEM leukemia = tested on: CCRF-CEM leukemia
COLO 205 colon = tested on: COLO 205 colon
DLD-1 colon = tested on: DLD-1 colon
DMS 114 small cell lung = tested on: DMS 114 small cell lung
DMS 273 small cell lung = tested on: DMS 273 small cell lung
EKVX NSCLC = tested on: EKVX NSCLC
HCC-2998 colon = tested on: HCC-2998 colon
HCT-116 colon = tested on: HCT-116 colon
HCT-15 colon = tested on: HCT-15 colon
HL-60(TB) leukemia = tested on: HL-60(TB) leukemia
HOP-18 NSCLC = tested on: HOP-18 NSCLC
HOP-62 NSCLC = tested on: HOP-62 NSCLC
HOP-92 NSCLC = tested on: HOP-92 NSCLC
HT29 colon = tested on: HT29 colon
IGROV1 ovarian = tested on: IGROV1 ovarian
K-562 leukemia = tested on: K-562 leukemia
KM12 colon = tested on: KM12 colon
KM20L2 colon = tested on: KM20L2 colon
LOX IMVI melanoma = tested on: LOX IMVI melanoma
LXFL 529 NSCLC = tested on: LXFL 529 NSCLC
M14 melanoma = tested on: M14 melanoma
M19-MEL melanoma = tested on: M19-MEL melanoma
MALME-3M melanoma = tested on: MALME-3M melanoma
MOLT-4 leukemia = tested on: MOLT-4 leukemia
NCI-H226 lung = tested on: NCI-H226 lung
NCI-H23 lung = tested on: NCI-H23 lung
NCI-H460 lung = tested on: NCI-H460 lung
NCI-H522 lung = tested on: NCI-H522 lung
OVCAR-3 ovarian = tested on: OVCAR-3 ovarian
OVCAR-4 ovarian = tested on: OVCAR-4 ovarian
OVCAR-5 ovarian = tested on: OVCAR-5 ovarian
OVCAR-8 ovarian = tested on: OVCAR-8 ovarian
RXF 393 renal = tested on: RXF 393 renal
SF-268 CNS = tested on: SF-268 CNS
SF-295 CNS = tested on: SF-295 CNS
SF-539 CNS = tested on: SF-539 CNS
SK-MEL-2 melanoma = tested on: SK-MEL-2 melanoma
SK-MEL-28 melanoma = tested on: SK-MEL-28 melanoma
SK-MEL-5 melanoma = tested on: SK-MEL-5 melanoma
SK-OV-3 ovarian = tested on: SK-OV-3 ovarian
SN12C renal = tested on: SN12C renal
SNB-19 CNS = tested on: SNB-19 CNS
SNB-75 CNS = tested on: SNB-75 CNS
SNB-78 CNS = tested on: SNB-78 CNS
SR leukemia = tested on: SR leukemia
SW-620 colon = tested on: SW-620 colon
TK-10 renal = tested on: TK-10 renal
U251 CNS = tested on: U251 CNS
UACC-257 melanoma = tested on: UACC-257 melanoma
UO-31 renal = tested on: UO-31 renal
XF 498 CNS = tested on: XF 498 CNS
CAKI-1 renal = tested on: CAKI-1 renal
RPMI-8226 leukemia = tested on: RPMI-8226 leukemia
RXF-631 renal = tested on: RXF-631 renal
UACC-62 melanoma = tested on: UACC-62 melanoma

Measured: TGI

COC(=O)/C=C/C1C2C3(CCC(C)C12C)OCCS3 (stereo unspecified)
not listed: CAKI-1 renal | RPMI-8226 leukemia | RXF-631 renal | UACC-62 melanoma
> 100 µM: all other assays above

COc1ccc2c(CCNC(C)=O)c(C(C)=O)[nH]c2c1
not listed: HOP-18 NSCLC | HOP-92 NSCLC | M19-MEL melanoma | MALME-3M melanoma | NCI-H23 lung | SK-MEL-5 melanoma | SK-OV-3 ovarian | XF 498 CNS
> 100 µM: all other assays above

COc1ccc(CC#C/C=C/C(=O)NCC(C)C)cc1
not listed: A498 renal | HOP-62 NSCLC | CAKI-1 renal | RXF-631 renal
> 100 µM: all other assays above
